Values of other authors in patent US20020031490A1, “Method for preparing resinates” (priority 2000, published 2002).

- solubility of indomethacin in water: 14 ppm
Compound: COc1ccc2c(c1)c(CC(=O)O)c(C)n2C(=O)c1ccc(Cl)cc1 [indomethacin]
